Measurements as given in ChEMBL document CHEMBL5465560, “Selectivity Literature for EUbOPEN Chemogenomic Library” (2024).
Substitutions are numbered along the chain they refer to.

What was measured:
[1] = molecular target: Phosphatidylinositol 3-kinase catalytic subunit type 3 (Homo sapiens, UniProt Q8NEB9); assay: Selectivity interaction (Kinase panel (Invitrogen)) EUB0000639a PIK3C3; conditions: at 200 nM
[2] = system: T1, Receptor-type tyrosine-protein kinase FLT3 (Homo sapiens), P36888 [D835Y]; assay: (§1) Selectivity interaction (KinomeScan (DiscoverX)) EUB0000229b FLT3; conditions: at 1 µM
T1 sequence (whole entry): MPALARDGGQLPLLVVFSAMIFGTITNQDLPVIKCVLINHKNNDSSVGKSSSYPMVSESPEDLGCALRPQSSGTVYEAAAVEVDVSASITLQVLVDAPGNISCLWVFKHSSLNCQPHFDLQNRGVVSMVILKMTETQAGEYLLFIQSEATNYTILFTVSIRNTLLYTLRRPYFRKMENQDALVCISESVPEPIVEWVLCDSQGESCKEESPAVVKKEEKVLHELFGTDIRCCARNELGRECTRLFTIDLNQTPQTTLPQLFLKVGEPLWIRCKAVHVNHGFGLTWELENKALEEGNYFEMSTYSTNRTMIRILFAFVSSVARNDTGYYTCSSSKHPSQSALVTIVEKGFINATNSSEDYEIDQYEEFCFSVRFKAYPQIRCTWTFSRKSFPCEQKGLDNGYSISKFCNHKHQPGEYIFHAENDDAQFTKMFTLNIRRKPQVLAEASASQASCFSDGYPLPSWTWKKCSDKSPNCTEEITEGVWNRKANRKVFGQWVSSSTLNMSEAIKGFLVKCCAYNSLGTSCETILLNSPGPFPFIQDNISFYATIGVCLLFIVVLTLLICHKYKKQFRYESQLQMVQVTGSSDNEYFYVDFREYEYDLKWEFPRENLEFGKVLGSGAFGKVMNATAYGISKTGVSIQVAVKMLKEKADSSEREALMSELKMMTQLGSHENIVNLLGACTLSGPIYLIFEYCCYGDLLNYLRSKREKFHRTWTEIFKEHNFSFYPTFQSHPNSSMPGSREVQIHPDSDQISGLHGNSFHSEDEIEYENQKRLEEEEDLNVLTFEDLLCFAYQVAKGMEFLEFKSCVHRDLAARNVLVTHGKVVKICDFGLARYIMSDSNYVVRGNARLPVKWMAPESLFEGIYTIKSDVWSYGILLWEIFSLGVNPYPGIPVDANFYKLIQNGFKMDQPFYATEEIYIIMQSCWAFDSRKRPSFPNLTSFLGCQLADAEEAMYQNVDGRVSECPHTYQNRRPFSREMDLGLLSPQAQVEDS

[3] = system: T2, Receptor-type tyrosine-protein kinase FLT3 (Homo sapiens), P36888 [D835V]; assay: as §1; conditions: at 1 µM
T2 sequence (whole entry): T1 sequence (whole entry) with Y835V

[4] = molecular target: Receptor-type tyrosine-protein kinase FLT3 (Homo sapiens) (UniProt P36888); assay: as §1; conditions: at 10 µM
[5] = system: T3, Receptor-type tyrosine-protein kinase FLT3 (Homo sapiens), P36888 [R834Q]; assay: as §1; conditions: at 1 µM
T3 sequence (whole entry): T1 sequence (whole entry) with R834Q, Y835D

Phosphatidylinositol 3-kinase catalytic subunit type 3, sequence (Q8NEB9 whole entry): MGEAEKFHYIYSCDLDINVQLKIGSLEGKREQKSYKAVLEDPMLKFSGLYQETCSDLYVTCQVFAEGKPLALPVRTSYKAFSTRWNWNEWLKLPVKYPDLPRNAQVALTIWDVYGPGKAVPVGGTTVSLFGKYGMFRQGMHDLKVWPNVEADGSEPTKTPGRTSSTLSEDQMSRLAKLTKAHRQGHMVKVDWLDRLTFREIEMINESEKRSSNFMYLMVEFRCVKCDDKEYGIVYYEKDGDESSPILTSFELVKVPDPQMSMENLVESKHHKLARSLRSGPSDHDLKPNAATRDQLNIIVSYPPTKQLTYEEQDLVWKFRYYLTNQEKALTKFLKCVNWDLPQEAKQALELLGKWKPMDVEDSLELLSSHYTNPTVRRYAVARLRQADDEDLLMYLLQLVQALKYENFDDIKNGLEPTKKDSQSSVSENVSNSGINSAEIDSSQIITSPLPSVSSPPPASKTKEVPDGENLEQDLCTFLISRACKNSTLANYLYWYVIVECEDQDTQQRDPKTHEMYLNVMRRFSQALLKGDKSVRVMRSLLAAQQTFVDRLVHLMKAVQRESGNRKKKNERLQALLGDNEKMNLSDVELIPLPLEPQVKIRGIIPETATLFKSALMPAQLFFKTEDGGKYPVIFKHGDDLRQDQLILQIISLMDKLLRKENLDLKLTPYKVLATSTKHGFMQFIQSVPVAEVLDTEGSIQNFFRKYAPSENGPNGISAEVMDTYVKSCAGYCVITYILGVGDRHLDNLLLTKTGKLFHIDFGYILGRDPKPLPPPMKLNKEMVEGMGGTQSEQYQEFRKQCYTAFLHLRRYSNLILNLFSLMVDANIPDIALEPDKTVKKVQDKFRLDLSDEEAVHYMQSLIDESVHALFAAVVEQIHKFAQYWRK

Row | Structure (SMILES) | % of inhibition [1] [%] | % binding [2] [%] | % binding [3] [%] | % binding [4] [%] | % binding [5] [%]
1 | CC[C@@H]1[C@H](F)C(=O)N[C@@H]1COc1nccc2cc(C(N)=O)c(OC)cc12 [ZIMLOVISERTIB] | -5.2 | – | – | – | –
2 | COc1cc(N(C)c2ccnc3ccc(C(F)(F)F)cc23)cc(OC)c1OC | – | 69 | 88 | 78 | 100
